Target: T1, luciferase (Photinus pyralis, UniProt P08659)
T1 construct: purchased Analytical Luminescent Laboratories (ALL), Sparks, Maryland #2005
Experiment: luminescence from the reaction between ATP and a luciferase/luciferin reactant system loaded on reagent discs
Type: biochemical
Text: FIG. 11 is a plot of relative luminescent intensity for reactant mixtures prepared with (♦) and without (▪) trehalose in the reactant loading solution for use with the device of FIG. 1.
FIG. 12 is a plot of luminescent intensity as a function of the concentration of trehalose in the reactant solution for use with the device of FIG. 1.
As discussed above, the inherent chemical and mechanical stability of the polymeric material is ideally suited for use as a medium on which to load the chemiluminescent reagents for the practice of the present invention. A number of commercial enterprises market luciferin-luciferase reagent kits for use in chemiluminescent reaction assays. One that the inventors have found to be particularly well suited for the practice of the present invention is the “Firelight®” luciferin-luciferase reagent kit provided by Analytical Luminescent Laboratories (ALL) of Sparks, Maryland. […] This provides for a greater intensity of luminescence, and faster reaction kinetics.
In the preparation of the reagent discs 48, the reactant concentrate is loaded, preferably drop-wise, onto the Merocel® CF50, obtained in pre-sterilized sheets. The coated sheets are then dried at ambient temperatures under a vacuum, and the reagent discs are cut from the sheets in an appropriate size and shape. Alternatively, discs may be cut first and then loaded with appropriate reagent solution. When loaded in such fashion with the reagent mixture, reagent discs, approximately 6 mm in diameter and approximately 1.5 mm in height, carry approximately 0.5 mg of the dried reactant mixture.
It is recognized in the prior art that trehalose will stabilize delicate materials while they are freeze-dried. Freeze drying as a technique was devised as being the only way certain sensitive materials can be handled. Ordinary drying at ambient or elevated temperature and at atmospheric or reduced pressure causes irreversible degradation of very many such substances, so much so that it has been accepted that sensitive proteins must not be dried at ambient temperature. […]

T1 sequence (P08659 whole entry): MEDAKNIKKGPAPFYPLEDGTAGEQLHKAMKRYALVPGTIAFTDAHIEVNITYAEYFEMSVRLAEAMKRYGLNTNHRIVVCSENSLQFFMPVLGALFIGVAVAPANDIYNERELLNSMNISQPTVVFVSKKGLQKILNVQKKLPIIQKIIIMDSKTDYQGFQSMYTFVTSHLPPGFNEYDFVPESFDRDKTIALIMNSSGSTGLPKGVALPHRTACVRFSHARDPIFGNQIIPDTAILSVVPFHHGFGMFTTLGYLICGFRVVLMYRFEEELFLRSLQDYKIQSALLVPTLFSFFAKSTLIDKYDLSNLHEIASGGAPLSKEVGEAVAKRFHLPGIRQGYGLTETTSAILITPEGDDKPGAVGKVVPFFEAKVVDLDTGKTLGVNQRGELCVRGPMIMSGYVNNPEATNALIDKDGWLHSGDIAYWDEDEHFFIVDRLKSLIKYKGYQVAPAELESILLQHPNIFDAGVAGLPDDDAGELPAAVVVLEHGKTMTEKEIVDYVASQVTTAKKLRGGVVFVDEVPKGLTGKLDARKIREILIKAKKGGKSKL

## OC[C@H]1O[C@H](O[C@H]2O[C@H](CO)[C@@H](O)[C@H](O)[C@H]2O)[C@H](O)[C@@H](O)[C@@H]1O [trehalose, a-D-glucopyranosyl-a-D-glucopyranoside]
6 mm×1.5 mm reagent disc, total loading approximately 4 mg including trehalose, FIG. 12
  observed luminescent intensities versus the same loading of reagents without the trehalose: more than twice
Reactant mixtures prepared with and without trehalose in the loading solution, FIG. 11
  stabilization effect on the chemiluminescent reactant mixture: measurable stabilization effect
Trehalose added to the loading solution at levels approaching its saturation solubility
  biochemical activity of the luciferase component of the reagent mixture: up to a doubling, or more

From patent US20010046687A1, “Method for the enhancement of luminescence intensity from a reaction between adenosine triphosphate (ATP) and a luciferase/luciferin reactant system” (priority 2000, published 2001)
